Test results taken from EP1976842B1 (priority 2006, dated 2007).
Read-outs that look alike come from different tables or passages of the source.

Target: T1, alpha7 nAChR (Rattus norvegicus, UniProt Q05941)
T1 construct: expressed in transfected cells
Test: cell-based
From the text: Rat GH4C1 cells were then transfected with the rat receptor, cloned and analyzed for functional alpha7 nicotinic receptor expression employing a FLIPR assay to measure changes in intracellular calcium concentrations.
The FLIPR system allows the measurements of real time Ca^2+-concentration changes in living cells using a Ca^2+ sensitive fluorescence dye (such as Fluo4). This instrument enables the screening for agonists and antagonists for alpha 7 nAChR channels stably expressed in GH4Cl cells.
GH4Cl cells stably transfected with rat- alpha7-nAChR (see above) were used. These cells are poorly adherent and therefore pretreatment of flasks and plates with poly-D-lysine was carried out. Cells are grown in 150 cm^2 T-flasks, filled with 30 ml of medium at 37°C and 5% CO2.
EC50 and IC50 values were calculated using the IDBS XLfit4.1 software package employing a sigmoidal concentration-response (variable slope) equation: Y = Bottom + ((Top-Bottom)/(1+(((EC50/X))^(∧)⁢HillSlope)). [formula]
The compounds were tested using the functional FLIPR primary screening assay employing the stable recombinant GH4C1 cell line expressing the alpha7 nAChR. Hits identified were validated further by generation of concentration-response curves.

T1 sequence (Q05941 23-502): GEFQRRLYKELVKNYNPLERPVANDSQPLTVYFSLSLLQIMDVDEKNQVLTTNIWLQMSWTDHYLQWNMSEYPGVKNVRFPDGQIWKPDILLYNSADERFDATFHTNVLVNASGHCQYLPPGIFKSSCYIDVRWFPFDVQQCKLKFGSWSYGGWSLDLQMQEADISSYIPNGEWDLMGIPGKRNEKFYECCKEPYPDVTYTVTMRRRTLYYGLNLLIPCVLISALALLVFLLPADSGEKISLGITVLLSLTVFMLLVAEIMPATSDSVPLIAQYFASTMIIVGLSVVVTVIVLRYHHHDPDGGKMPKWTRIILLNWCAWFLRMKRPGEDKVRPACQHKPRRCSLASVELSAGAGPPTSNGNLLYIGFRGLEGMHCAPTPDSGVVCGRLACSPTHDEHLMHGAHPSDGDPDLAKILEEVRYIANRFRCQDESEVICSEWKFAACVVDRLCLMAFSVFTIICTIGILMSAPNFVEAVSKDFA

SMILES	EC50 [nM]	EC50 (agonist concentration-response, 0.001 to 30 microM, alpha7 nAChR stably expressed in GH4C1 cells, read-out: EC50) [nM]
C[N+](C)(C)CCO [Choline, choline]	24200 ± 8300	
O=c1cccc2n1C[C@@H]1CNC[C@H]2C1 [Cytisine, cytisine]	1210 ± 130	
C[N+]1(C)CCN(c2ccccc2)CC1 [DMPP]		980 ± 470
